From publication PMC7495481, “Sequence specificity analysis of the SETD2 protein lysine methyltransferase and discovery of a SETD2 super-substrate” (Communications Biology, 2020)
Several values for one entry are separate records, joined by “and”; a condition that tells them apart may be missing. Equal values may be shown once.

Legend:
SETD2 [1] = molecular target: T1, SETD2 (Homo sapiens, UniProt Q9BYW2); assay: Peptide SPOT array methylation of reported SETD2 substrates; assay type: biochemical; conditions: SPOT array on cellulose membrane; 0.76 µM radioactive AdoMet, 3–6 µM SETD2, 60 min, pH 9; autoradiography
T1 construct: SETD2 catalytic SET domain (amino acids 1347–1711, UniProt No: Q9BYW2); made in house; host or cells: E. coli
T1 sequence (Q9BYW2 1347-1711): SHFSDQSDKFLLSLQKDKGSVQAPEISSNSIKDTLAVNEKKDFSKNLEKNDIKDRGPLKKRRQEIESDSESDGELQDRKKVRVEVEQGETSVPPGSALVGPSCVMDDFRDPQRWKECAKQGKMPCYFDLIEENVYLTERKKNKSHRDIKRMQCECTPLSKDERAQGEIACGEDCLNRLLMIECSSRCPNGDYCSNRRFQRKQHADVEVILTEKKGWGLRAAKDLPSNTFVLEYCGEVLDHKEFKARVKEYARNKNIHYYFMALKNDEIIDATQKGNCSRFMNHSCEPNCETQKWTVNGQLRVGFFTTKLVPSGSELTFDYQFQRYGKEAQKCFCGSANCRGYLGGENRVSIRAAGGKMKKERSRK
Protocol: Next, the SETD2 activity was tested on peptide SPOT arrays containing fifteen amino acid long peptides immobilized on a cellulose membrane. As reported SETD2 substrates, the H3K36 (29–43), α -tubulin (33–47) and STAT1 (518–532) peptides (with the target lysine centered in each case) were included, and peptides with the corresponding target lysine mutated to alanine were used as negative controls. The peptide array was incubated in methylation buffer supplemented with SETD2 and radioactively labeled AdoMet. […] Methylation of the previously reported non-histone substrates α -tubulin and STAT1 was not detectable at the peptide level and, therefore, they were excluded from further investigation.
(§1) Peptide arrays containing fifteen amino acid long peptides were synthesized using the SPOT synthesis method[48] with an Autospot peptide array synthesizer (Intavis AG, Köln, Germany). After synthesis, the obtained membranes were pre-incubated in methylation buffer (20 mM Tris/HCl pH 9, 0.01% Triton X-100, 10 mM DTT, 1.5 mM MgCl2) for 5 min on a shaker. Thereafter, the membranes were incubated in methylation buffer supplemented with 0.76 µM radioactively labeled AdoMet (PerkinElmer) and 3–6 µM SETD2 enzyme for 60 min on a shaker. After methylation, the membranes were washed 5 times for 5 min in wash buffer (100 mM NH4HCO3, 1% SDS) and incubated in amplify NAMP100V (GE Healthcare) for 5 min. This was followed by the exposure of the membranes to a hyperfilm^TM high performance autoradiography (GE Healthcare) film at −80 °C in the dark. The films were developed with an Optimax Typ TR machine after different exposue times. For quantification the signal intensities were measured with the Phoretix^TM software and analyzed with Microsoft Excel.
Supplementary Fig. 1: SETD2 protein and catalytic activity. a Purified His6-tagged SETD2 SET domain (1347-1711) was separated on an SDS-gel and […]
stained with Coomassie BB. […]
tubulin (33-47), STAT1 (518-532) and their corresponding target lysine to alanine mutant peptides were synthesized on a cellulose membrane. The membrane was incubated in methylation buffer supplemented with radioactively labeled AdoMet and SETD2. The signal of the transferred radioactive methyl groups was visualized by autoradiography.

SETD2 [2] = molecular target: T1, SETD2; assay: Peptide SPOT array target lysine methylation of selected non-histone peptides (Fig. 3b); assay type: biochemical; conditions: Exp1–Exp3, 3–6 µM SETD2, 0.76 µM AdoMet, 60 min, pH 9
Excerpt: However, we could identify 166 possible targets, which contain partial matches to the substrate specificity profile. The possible methylation of these 166 putative substrates was investigated at the peptide level. For this, fifteen amino acid long peptides containing the sequence of the non-histone targets surrounding the predicted target lysine were synthesized on a membrane. The H3K36 (29–43) peptide (spots A1, I9), the super-substrate peptide (spots A3, I11) and the corresponding lysine to alanine mutation peptides (spot A2, I10, and A4, I12) were included as positive and negative controls (Fig. 3a, Supplementary Fig. 4 and Supplementary Table 2). The methylation reactions and the detection of the methylation signals were performed in duplicates as described above. We observed that all of the investigated peptides were more weakly methylated than the super-substrate peptide. […] In the next step, 20 of the peptides were selected for further investigation based on the methylation intensity and the known functions of the proteins to confirm the methylation at the predicted target site. The peptides were synthesized on another membrane, now including the target lysine to alanine mutation control peptides in each case. The methylation reactions and the detection of the signal were conducted as described above (Fig. 3b, Supplementary Fig. 5 and Supplementary Table 3).
Fig. 3 Identification of non-histone substrates of SETD2. a Candidate non-histone peptide substrates were identified in the human proteome based on the SETD2 super-substrate specificity profile. The peptides were synthesized on a peptide SPOT array (Supplementary Table 2) and methylated by SETD2. As controls, the H3K36, H3K36A, ssK36 and ssK36A peptides were included on spots A1–A4 and I9–I12. The autoradiography image is an example of the obtained results. […] The quantification of the data of two experiments is shown in Supplementary Fig. 4. b Analysis of target lysine methylation of selected non-histone substrate peptides. Peptide SPOT arrays were synthesized containing the non-histone peptide substrates identified in panel A in addition to the lysine to alanine mutations presented on the array as every second spot (Supplementary Table 3). As controls, the H3K36, H3K36A, ssK36, and ssK36A mutant peptides were included on spot A1–A4 and C5–C8. The autoradiography image is an example of the obtained results. The quantification of the data of three experiments is shown in Supplementary Fig. 5. Peptides selected for furhter analysis are highlighted by blue circles. c Protein methylation of FBN1 and confirmation of the target lysine methylation. Both wild type (WT) and mutant (K666R) FBN1 were purified and equal amounts were methylated by SETD2 (2 µM). […] The size of FBN1 is indicated by an asterisk.
as §1

SETD2 [3] = molecular target: T1, SETD2; assay: Protein methylation assay (non-histone proteins, GST fusions, nucleosomes, H3.1); assay type: biochemical; conditions: based on own results and literature data, ref [18],[19]
Excerpt: The 9 new putative non-histone substrates of SETD2 were cloned into a pGEX-6p2 bacterial expression vector for protein expression. Six of them could be expressed and purified through glutathione sepharose beads (Table 1). For comparison, the super-substrate sequence was cloned with a […] GST-tag (ssK36-GST) to mimic the natural setting of the H3K36 site in the N-terminal tail of histone 3. Similar amounts of the purified non-histone substrate proteins and the ssK36-GST protein were loaded on an SDS-gel and stained with Coomassie BB (Supplementary Fig. 6a). Afterward protein methylation reactions were conducted using radioactively labeled AdoMet and the radioactive signal of the methyl group transfer was detected by autoradiography (Supplementary Fig. 6b). […] Next, we aimed to confirm the FBN1 methylation at the predicated target lysine K666. For this, a K666R mutation was introduced and the wildtype and mutant FBN1 proteins were purified by affinity chromatography. […]
Protein methylation reactions were performed in 40 µl methylation buffer containing 0.76 µM radioactive labeled AdoMet (PerkinElmer), approximately 20 µg of substrate protein and 6 µM SETD2 enzyme (if not otherwise indicated) for 3 h at 25 °C. […] The radioactive methylation signal was detected by a hyperfilm^TM high performance autoradiography film (GE Healthcare) at −80 °C in the dark. […]

SETD2 [4] = molecular target: T1, SETD2; assay: Peptide SPOT array methylation of H3K36 (29–43) variants, super-substrate design (Fig. 2a); assay type: biochemical; conditions: SPOT array; 0.76 µM radioactive AdoMet, 3–6 µM SETD2, 60 min, pH 9; autoradiography
Excerpt: Based on these observations, we aimed to explore, if better substrates than H3K36 can be designed for SETD2. We synthesized peptide SPOT arrays including H3K36 (29–43) as a positive control and the H3K36A mutant as a negative control, in which up to 5 combined mutations were systematically introduced that converted the original H3K36 residues into residues that are more favored (Fig. 2a and Supplementary Table 1). This peptide array was methylated by SETD2 as described above and the methylation signal was captured by autoradiography.
Fig. 2 Design of an optimized SETD2 peptide substrate and analysis of its methylation. a Variants of the H3K36 (29–43) peptide containing up to five mutations (Supplementary Table 1) were synthesized on a cellulose membrane and methylated by SETD2. The signal of the transferred radioactive methyl groups was detected by autoradiography. Spots A1 and B15 contain the H3K36 sequence, A2 and B16 the H3K36A peptide. Two films with different exposure times are shown to visualize weaker methylated spots as well. b Comparison of the methylation of purified super-substrate (ssK36) and the H3K36 peptides. […] Methylation reactions were conducted using 20 µM peptide and 6 µM enzyme. The lower panels display autoradiography films after different exposure times allowing to compare the methylation levels of the different samples. For comparison, different dilutions of the methylated ssK36 were loaded as indicated. c Time course of ssK36 peptide methylation determined under single turnover conditions using 5 µM substrate and 6 µM enzyme. […] The gels with the radioactive ssK36 (5 µl loaded per well) and H3K36 peptides (20 µl loaded per well) were exposed together to the same x-ray film. […] An enlargement of the H3K36 data with adjusted y-axis scale is shown in Supplementary Fig. 3d.
as §1

[5] = molecular target: T2, His6-tagged catalytic SET domain of SETD2 (amino acids 1347–1711) (human, UniProt Q9BYW2 1347-1711); assay: enzyme inhibition kinetics (competitive inhibition of peptide methylation); 20 µM ssK36 (29–43) substrate peptide, 6 µM SETD2, inhibitor peptide 0 to 320 µM, methylation buffer (20 mM Tris/HCl pH 9, 0.01% Triton X-100, 10 mM DTT, 1.5 mM MgCl2) with 0.76 µM radioactively labeled AdoMet, 25 °C, Tricine-SDS-PAGE and autoradiography; global fit to a competitive inhibition steady-state model; conditions: both partners purified
T2 construct: also called SET-domain containing protein 2; KMT3A; source: E. coli, purified (Ni-NTA beads)
T2 sequence (looked up): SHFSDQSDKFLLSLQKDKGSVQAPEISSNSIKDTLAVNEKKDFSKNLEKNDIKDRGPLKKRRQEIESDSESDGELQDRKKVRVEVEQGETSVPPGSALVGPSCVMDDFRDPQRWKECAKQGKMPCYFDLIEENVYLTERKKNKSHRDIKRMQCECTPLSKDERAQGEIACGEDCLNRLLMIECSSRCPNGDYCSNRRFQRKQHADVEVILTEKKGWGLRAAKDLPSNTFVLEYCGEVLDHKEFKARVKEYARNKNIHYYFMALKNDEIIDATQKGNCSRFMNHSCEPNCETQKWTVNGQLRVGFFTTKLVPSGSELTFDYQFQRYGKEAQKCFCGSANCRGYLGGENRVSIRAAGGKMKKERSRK

DGQMPSDKTIGGGDD [α-tubulin (33–47), reported SETD2 substrate peptide, K40]
peptide spot methylation signal (SETD2 [1]): did not show a detectable peptide methylation signal

APATGGVAKPHRYRP [K36A, H3K36A mutant peptide, negative control, reference compound]
peptide spot methylation signal (SETD2 [1]): did not show a detectable peptide methylation signal | Relative methylation signal, Average (SETD2 [2]): 0.2341 and 0.1607

STCYGGYKRGQCIKP [FBN1, Fibrillin-1 peptide, target lysine 666]
comparison of protein methylation efficiency (SETD2 [3]): more efficiently methylated than H3, α -tubulin and STAT1 | Relative methylation signal, Average (SETD2 [2]): 0.6365

APATGGVKKPHRYRP [H3K36, H3K36 (29–43) peptide on SPOT array, reference compound]
peptide spot methylation signal (SETD2 [1]): detectable methylation | Relative methylation signal, Average (SETD2 [2]): 0.4318 and 0.3786

APRFGGVKKPHRYRP [A31R/T32F]
peptide array methylation of H3K36 variants (in words) (SETD2 [4]): stepwise improvement of activity with increasing number of mutations

APAFGGVKKPHRYRP [T32F]
peptide array methylation of H3K36 variants (in words) (SETD2 [4]): stepwise improvement of activity with increasing number of mutations

B1: ssK36M peptide (29–43), super-substrate peptide with the target lysine changed to methionine (peptide)
peptide: APRFGGVMRPNRYRP
notes: histone H3 residues 29–43 (UniProt P68431 printed for the parent H3K36 peptide) with the four super-substrate exchanges and K36M; source: synthetic peptide, bought: Innovative Peptide Solutions (Berlin)
Ki [5]: 128 µM

B2: H3K36M (27–43) peptide (peptide, UniProt P68431 28-44, looked up)
peptide: KSAPATGGVMKPHRYRP
notes: histone H3 residues 27–43 with K36M (the oncohistone mutation); source: synthetic peptide, bought: Intavis AG (Köln)
Ki [5]: 447 µM
